Laboratory results from ChEMBL document CHEMBL1641533, “A facile, click chemistry-based approach to assembling fluorescent chemosensors for protein tyrosine kinases” (Bioorg Med Chem Lett, 2011).
Each block holds one compound with its values, some of them ahead of it. Calls of active or inactive are those of the source. The rule behind the calls is not given here. Starred links: 1 amine or outer side, 2 acyl side, 3 side chain; linkers in the order of their positions; H or OH if unused. Non-standard residues stand in square brackets, D forms with d. Residues, ends and D or L forms follow the SMILES beside them. X2 = CCN1C(=O)c2cccc3c(-n4cc(C[C@H](N[*:1])C(=O)[*:2])nn4)ccc(c23)C1=O; X1 = O=C([C@H](Cc1cn(-c2ccc3ccc4cccc5ccc2c3c45)nn1)N[*:1])[*:2]; X5 = Cc1cc(=O)[nH]c2cc(-n3cc(C[C@H](N[*:1])C(=O)[*:2])nn3)ccc12; X4 = O=C([C@H](Cc1cn(-c2cc3ccc(O)cc3oc2=O)nn1)N[*:1])[*:2]; X3 = O=C([C@H](Cc1cn(-c2cccc3ccccc23)nn1)N[*:1])[*:2]

Columns and labels:
[1] = molecular target: Tyrosine-protein kinase Lyn (Homo sapiens) (UniProt P07948); assay: Binding affinity to Lyn assessed as increase of fluorescence after 60 mins relative to control
[2] = molecular target: Tyrosine-protein kinase Lyn (Homo sapiens) (UniProt P07948); assay: Induction of Lyn phosphorylation in human K562 CML cells assessed as peptide substrate consumption at 25 uM after 40 mins; format: cell-based
[3] = molecular target: Tyrosine-protein kinase Lyn (Homo sapiens) (UniProt P07948); assay: Binding affinity to Lyn in human K562 CML cells assessed as increase of fluorescence after 60 mins in presence of Bcr-Abl inhibitor Imatinib; format: cell-based
[4] = molecular target: Tyrosine-protein kinase Lyn (Homo sapiens) (UniProt P07948); assay: Induction of Lyn phosphorylation in human K562 CML cells assessed as peptide substrate consumption at 25 uM after 20 mins in presence of Bcr-Abl inhibitor Imatinib; format: cell-based
[5] = molecular target: Tyrosine-protein kinase Lyn (Homo sapiens) (UniProt P07948); assay: Binding affinity to Lyn assessed as increase of fluorescence after 60 mins by HPLC analysis
[6] = molecular target: Tyrosine-protein kinase Lyn (Homo sapiens) (UniProt P07948); assay: Induction of Lyn phosphorylation in human K562 CML cells assessed as peptide substrate consumption at 25 uM after 60 mins in presence of Bcr-Abl inhibitor Imatinib; format: cell-based
[7] = molecular target: Tyrosine-protein kinase Lyn (Homo sapiens) (UniProt P07948); assay: Binding affinity to Lyn in human K562 CML cells assessed as increase of fluorescence after 60 mins in presence of SFK inhibitor SU6656; format: cell-based
[8] = molecular target: Tyrosine-protein kinase Lyn (Homo sapiens) (UniProt P07948); assay: Induction of Lyn phosphorylation in human K562 CML cells assessed as peptide substrate consumption at 25 uM after 40 mins in presence of Bcr-Abl inhibitor Imatinib; format: cell-based
[9] = molecular target: Tyrosine-protein kinase Lyn (Homo sapiens) (UniProt P07948); assay: Induction of Lyn phosphorylation in human K562 CML cells assessed as peptide substrate consumption at 25 uM after 10 mins in presence of Bcr-Abl inhibitor Imatinib; format: cell-based
[10] = molecular target: Tyrosine-protein kinase Lyn (Homo sapiens) (UniProt P07948); assay: Induction of Lyn phosphorylation in human K562 CML cells assessed as peptide substrate consumption at 25 uM after 60 mins; format: cell-based
[11] = molecular target: Tyrosine-protein kinase Lyn (Homo sapiens) (UniProt P07948); assay: Induction of Lyn phosphorylation in human K562 CML cells assessed as peptide substrate consumption at 25 uM after 10 mins; format: cell-based
[12] = molecular target: Tyrosine-protein kinase Lyn (Homo sapiens) (UniProt P07948); assay: Induction of Lyn phosphorylation in human K562 CML cells assessed as peptide substrate consumption at 25 uM after 20 mins; format: cell-based
[13] = molecular target: Tyrosine-protein kinase Lyn (Homo sapiens) (UniProt P07948); assay: Binding affinity to Lyn in human K562 CML cells assessed as increase of fluorescence; format: cell-based; settings: TDE = time-dependent effect

Tyrosine-protein kinase Lyn (Homo sapiens), sequence (P07948 2-512 limits assumed): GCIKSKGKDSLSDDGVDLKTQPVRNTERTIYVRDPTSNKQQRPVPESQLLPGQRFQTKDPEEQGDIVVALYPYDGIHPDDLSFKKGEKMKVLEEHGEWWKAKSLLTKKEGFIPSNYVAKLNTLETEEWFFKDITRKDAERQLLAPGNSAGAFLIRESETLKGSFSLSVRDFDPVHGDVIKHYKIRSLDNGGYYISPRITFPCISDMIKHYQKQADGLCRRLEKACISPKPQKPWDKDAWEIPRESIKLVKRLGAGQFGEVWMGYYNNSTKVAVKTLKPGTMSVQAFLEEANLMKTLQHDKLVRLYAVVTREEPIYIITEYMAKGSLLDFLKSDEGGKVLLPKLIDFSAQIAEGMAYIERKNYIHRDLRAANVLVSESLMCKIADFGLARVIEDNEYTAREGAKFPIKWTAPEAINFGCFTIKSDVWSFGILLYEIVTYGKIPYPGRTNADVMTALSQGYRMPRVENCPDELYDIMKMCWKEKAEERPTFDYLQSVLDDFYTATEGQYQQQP

fold change (FC) [1]: 1.3
Structure (SMILES): CC[C@H](C)[C@H](NC(=O)[C@H](CCC(=O)O)NC(=O)[C@H](CCC(=O)O)NC(=O)[C@H](CCC(=O)O)NC(=O)[C@H](C)N)C(=O)N[C@@H](Cc1ccc(O)cc1)C(=O)NCC(=O)N[C@@H](CCC(=O)O)C(=O)N[C@@H](Cc1cn(Cc2cc(=O)oc3cc(N)ccc23)nn1)C(=O)N[C@@H](CCC(=O)O)C(=O)N[C@@H](C)C(=O)N[C@@H](CCCCN)C(=O)N[C@@H](CCCCN)C(=O)N[C@@H](CCCCN)C(=O)N[C@@H](CCCCN)C(N)=O

fold change (FC) [1]: 1.3
Structure (SMILES): CC[C@H](C)[C@H](NC(=O)[C@H](CCC(=O)O)NC(=O)[C@H](CCC(=O)O)NC(=O)[C@H](CCC(=O)O)NC(=O)[C@H](C)N)C(=O)N[C@@H](Cc1ccc(O)cc1)C(=O)NCC(=O)N[C@@H](CCC(=O)O)C(=O)N[C@@H](Cc1cn(Cc2cc(=O)oc3cc(NC(C)=O)ccc23)nn1)C(=O)N[C@@H](CCC(=O)O)C(=O)N[C@@H](C)C(=O)N[C@@H](CCCCN)C(=O)N[C@@H](CCCCN)C(=O)N[C@@H](CCCCN)C(=O)N[C@@H](CCCCN)C(N)=O

fold change (FC) [1]: 0
Structure (SMILES): CC[C@H](C)[C@H](NC(=O)[C@H](CCC(=O)O)NC(=O)[C@H](CCC(=O)O)NC(=O)[C@H](CCC(=O)O)NC(=O)[C@H](C)N)C(=O)N[C@@H](Cc1ccc(O)cc1)C(=O)NCC(=O)N[C@@H](CCC(=O)O)C(=O)N[C@@H](Cc1cn(-c2cccc3ccccc23)nn1)C(=O)N[C@@H](CCC(=O)O)C(=O)N[C@@H](C)C(=O)N[C@@H](CCCCN)C(=O)N[C@@H](CCCCN)C(=O)N[C@@H](CCCCN)C(=O)N[C@@H](CCCCN)C(N)=O (H-AEEEIYGE[X3]EAKKKK-NH2)

fold change (FC) [1]: 1.1
Structure (SMILES): CC[C@H](C)[C@H](NC(=O)[C@H](CCC(=O)O)NC(=O)[C@H](CCC(=O)O)NC(=O)[C@H](CCC(=O)O)NC(=O)[C@H](C)N)C(=O)N[C@@H](Cc1ccc(O)cc1)C(=O)NCC(=O)N[C@@H](CCC(=O)O)C(=O)N[C@@H](Cc1cn(-c2cc3ccc(O)cc3oc2=O)nn1)C(=O)N[C@@H](CCC(=O)O)C(=O)N[C@@H](C)C(=O)N[C@@H](CCCCN)C(=O)N[C@@H](CCCCN)C(=O)N[C@@H](CCCCN)C(=O)N[C@@H](CCCCN)C(N)=O (H-AEEEIYGE[X4]EAKKKK-NH2)

fold change (FC) [1]: 0
Structure (SMILES): CC[C@H](C)[C@H](NC(=O)[C@H](CCC(=O)O)NC(=O)[C@H](CCC(=O)O)NC(=O)[C@H](CCC(=O)O)NC(=O)[C@H](C)N)C(=O)N[C@@H](Cc1ccc(O)cc1)C(=O)NCC(=O)N[C@@H](CCC(=O)O)C(=O)N[C@@H](Cc1cn(-c2ccc3c(C)cc(=O)[nH]c3c2)nn1)C(=O)N[C@@H](CCC(=O)O)C(=O)N[C@@H](C)C(=O)N[C@@H](CCCCN)C(=O)N[C@@H](CCCCN)C(=O)N[C@@H](CCCCN)C(=O)N[C@@H](CCCCN)C(N)=O (H-AEEEIYGE[X5]EAKKKK-NH2)

Continued, compound first:

Structure (SMILES): CC[C@H](C)[C@H](NC(=O)[C@H](CCC(=O)O)NC(=O)[C@H](CCC(=O)O)NC(=O)[C@H](CCC(=O)O)NC(=O)[C@H](C)N)C(=O)N[C@@H](Cc1ccc(O)cc1)C(=O)NCC(=O)N[C@@H](CCC(=O)O)C(=O)N[C@@H](Cc1cn(CCNS(=O)(=O)c2cccc3c(N(C)C)cccc23)nn1)C(=O)N[C@@H](CCC(=O)O)C(=O)N[C@@H](C)C(=O)N[C@@H](CCCCN)C(=O)N[C@@H](CCCCN)C(=O)N[C@@H](CCCCN)C(=O)N[C@@H](CCCCN)C(N)=O
fold change (FC) [1]: 0

Structure (SMILES): CC[C@H](C)[C@H](NC(=O)[C@H](CCC(=O)O)NC(=O)[C@H](CCC(=O)O)NC(=O)[C@H](CCC(=O)O)NC(=O)[C@H](C)N)C(=O)N[C@@H](Cc1ccc(O)cc1)C(=O)NCC(=O)N[C@@H](CCC(=O)O)C(=O)N[C@@H](Cc1cn(-c2ccc3ccc4cccc5ccc2c3c45)nn1)C(=O)N[C@@H](CCC(=O)O)C(=O)N[C@@H](C)C(=O)N[C@@H](CCCCN)C(=O)N[C@@H](CCCCN)C(=O)N[C@@H](CCCCN)C(=O)N[C@@H](CCCCN)C(N)=O (H-AEEEIYGE[X1]EAKKKK-NH2)
fold change (FC) [1]: 4
Activity [2]: 2.01%
Activity [3]: inactive
Activity [4]: 0.25%
fold change (FC) [5]: 4
Activity [6]: 0.41%
Activity [7]: inactive
Activity [8]: 0.33%
Activity [9]: 0.18%
Activity [10]: 4.24%
Activity [11]: 1.35%
Activity [12]: 1.67%
Activity [13]: tde

Structure (SMILES): CC[C@H](C)[C@H](NC(=O)[C@H](CCC(=O)O)NC(=O)[C@H](CCC(=O)O)NC(=O)[C@H](CCC(=O)O)NC(=O)[C@H](C)N)C(=O)N[C@@H](Cc1ccc(O)cc1)C(=O)NCC(=O)N[C@@H](CCC(=O)O)C(=O)N[C@@H](Cc1cn(-c2ccc3c4c(cccc24)C(=O)N(CC)C3=O)nn1)C(=O)N[C@@H](CCC(=O)O)C(=O)N[C@@H](C)C(=O)N[C@@H](CCCCN)C(=O)N[C@@H](CCCCN)C(=O)N[C@@H](CCCCN)C(=O)N[C@@H](CCCCN)C(N)=O (H-AEEEIYGE[X2]EAKKKK-NH2)
fold change (FC) [1]: 2.5
